Results on 21 molecules are retold here after US10030016B2 (Sunesis Pharmaceuticals, Inc., priority 2009, dated 2018).

Counter-ions that a name gives are not always drawn. Like-named read-outs stand apart in the source and are kept apart here. Bounds are passed on as bounds.

The test system of assay [1] is phospho-akt (Thr308) in PC-3 cells. Description: Inhibition of phospho-akt (Thr308) in PC-3 cells, MSD phospho-akt 308 ELISA kit. The class given is cell-based. The following applies: 2 hours, no serum, read-out: EC50. On the procedure: PC-3 cells were harvested by trypsin and counted. Cells were plated in coated 96-well flat bottom plates (plate 15,000 cells/well in 100 ul growth media (10% FBS, 1× pen-strep) an place in an incubator overnight.
Subject inhibitors were stocked at 50 mM, then diluted to 30 mM (4.8 μl cpd plus […] DMSO) in 100% DMSO. Three-fold dilutions were performed from 30 mM stock. (4 μl into 8 ul 100% DMSO). Aliquots of 1.0 μl of inhibitor solution were transferred into SF Medium (using deep well block).
Control wells were prepared as follows. For DMSO high controls, 1.0 μl of 100% DMSO was added into 1.0 ml SF. For low controls for PC-3 cells, 5 μM of Wortmannin (10 μl of 1 mM Wortmannin stock was added into 2 ml SF Medium. The supernatant media was removed and the plate was blotted. 100 μl of controls/media or compound/media were added to cells and placed in incubator for 2 hours. The supernatant media was removed and the plate was blotted. 55 μl of the MSD complete lysis buffer was added (10 mls Tris Lysis buffer, 200 ul protease inhibitor, 100 ul phosphatase inhibitor 1, and 100 ul phosphatase inhibitor II). The plate was placed on a plate shaker for 60 mins at 4 deg.
MSD plates were blocked for 1 hour by adding 150 μl of Blocking Solution (3% BSA) to each well. The MSD plates were washed 4× with TBST, and 50 μl lysates were transferred to MSD plate and place on plate shaker shake at 4 degrees O/N, light shaking (speed 3.5). The plate was washed 4× with TBST.
25 μl of Ab detection solution was added to each well. The plate was sealed and incubated 1 hr RT, light shaking (speed 3.5). The plate was washed 4 times with TBST. 150 μl of Read Buffer was added (5 mls 4×MSD Read Buffer+15 mls water). Finally the plate was read immediately on the MSD plate reader.
A general note: ELISA stands for enzyme-linked immunosorbent assay.

Assay [2] has as its target PDK1 (Homo sapiens (Human), UniProt O15530). The assay is described as follows: PDK1 kinase assay (coupled PDK1/AKT/FAM-crosstide assay, IMAP fluorescence polarization). The class given is biochemical. As to the method: A PDK1 kinase assay was performed as follows. PDK1 (amino acids 51-359) and AKT2 (amino acids 140-467 fused to PIFtide, amino acids […]) were expressed as N-terminally tagged GST fusion proteins in insect cells and purified to homogeneity. Enzyme activity was determined in a coupled PDK1/AKT/FAM-crosstide assay and phosphorylation of FAM-crosstide was determined by standard IMAP protocol (Molecular Devices). For inhibition studies, compounds were titrated 4-fold in DMSO and diluted 40-fold into assay buffer (10 mM Tris HCl pH7.2; 10 mM MgCl2; 0.01% Triton X-100; 1 mM DTT) containing PDK1, AKT2, and FAM-crosstide (final concentrations: 0.75 nM PDK1, 10 nM unphosphorylated AKT2, and 100 nM crosstide substrate). The kinase reaction was initiated by adding ATP to a final concentration of 40 μM of PDK1 and incubated at 25° C. for 30 min. To detect assay product, the kinase reaction was combined with Progressive Binding Solution (1:600 Progressive Binding Reagent, 50% Buffer A, 50% Buffer B, Molecular Devices) in a 1:3 ratio. The mixture was incubated for 2 hours at 25° C. and the plate was scanned on an Analyst AD with excitation at 485 nm and emission at 530 nm. The fluorescence polarization value “P” is defined by the equation below. The value “mP” is generated by multiplying the P value for each reaction well by a factor of 1000. The value “ΔmP” for each well is the mP value for that well minus the mP value for the average negative control. P=(Fpar−Fperp)/(Fpar+Fperp) Eq.:
Where “par” is fluorescence intensity parallel to the excitation plane; and “perp” is fluorescence intensity perpendicular to the excitation plane. ΔmP values were plotted as a function of compound concentration and the data were analyzed with a 4-parameter fit using GraphPad Prism software.
For orientation: Fluorescence polarisation rises when a labelled molecule tumbles more slowly, as on binding a larger partner.

Where [3] appears, read: Homo sapiens, inhibition of P308 Akt in PC-3 cells, MSD.
Where [4] appears, read: inhibition of phospo-PDK1 in vitro.
The mark [5] stands for this setting: Homo sapiens, inhibition of P308 Akt in PC-3 cells using MSD.

Sequence of PDK1 (O15530 51-359): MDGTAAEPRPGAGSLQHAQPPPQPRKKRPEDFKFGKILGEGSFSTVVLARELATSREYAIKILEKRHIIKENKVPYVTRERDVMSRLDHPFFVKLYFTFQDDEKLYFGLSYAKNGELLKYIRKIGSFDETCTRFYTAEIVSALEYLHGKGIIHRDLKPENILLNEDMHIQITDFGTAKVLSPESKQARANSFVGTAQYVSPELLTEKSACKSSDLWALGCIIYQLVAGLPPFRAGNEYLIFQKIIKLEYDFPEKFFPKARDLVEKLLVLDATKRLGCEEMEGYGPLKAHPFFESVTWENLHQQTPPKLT

As to `CC(C)C(=O)Nc1cnc(NCc2ccc(-c3ccc4ncnc(N)c4c3)s2)c(C(=O)NCc2ccc(F)c(F)c2)c1` [Example 8.5.3, 2-({[5-(4-aminoquinazolin-6-yl)thiophen-2-yl]methyl}amino)-N-(3,4-difluorobenzyl)-5-[(2-methylpropanoyl)amino] pyridine-3-carboxamide], the EC50 (as a rule, the concentration that produces a half-maximal response) in assay [1] (setting [3]) fell in the range of 1000 to 10000 nM. In addition, in assay [2] (setting [4]), the IC50 (as a rule, the concentration that gives 50% inhibition) fell in the range of 100 to 1000 nM.
As for `CNc1ncc2cc(O[C@@H](C)CNc3ncc(C#N)cc3C(=O)N[C@@H](C)c3ccc(F)cc3)ccc2n1` [Example 253, 5-cyano-N-((S)-1-(4-fluorophenyl)ethyl)-2-((S)-2-(2-(methylamino)quinazolin-6-yloxy)propylamino)nicotinamide], the EC50 in assay [1] (setting [5]) was greater than 10000 nM. The same molecule yielded an IC50 in assay [2] (inhibition of PDK1 in vitro) of 1000 to 5000 nM.
As to `C[C@H](NC(=O)c1nc(C#N)cnc1N[C@H](C)c1ccc(-c2c[nH]c3ncnc(N)c23)cc1)c1ccc(F)c(F)c1` [Example 402, 3-((R)-1-(4-(4-amino-7H-pyrrolo[2,3-d]pyrimidin-5-yl)phenyl)ethylamino)-6-cyano-N-((S)-1-(3,4-difluorophenyl)ethyl)pyrazine-2-carboxamide], the EC50 in assay [1] (setting [5]) is less than 1000 nM. The IC50 in assay [2] (inhibition of PDK1 in vitro) is less than 100 nM.
`Nc1ncnc2ccc(-c3ccc(CNc4ncccc4C(=O)NCc4ccncc4)s3)cc12` [Example 3.38, 2-({[5-(4-aminoquinazolin-6-yl)thiophen-2-yl]methyl}amino)-N-(pyridin-4-ylmethyl) pyridine-3-carboxamide (TFA salt)]: the EC50 in assay [1] (setting [3]) was greater than 10000 nM. For the same molecule, the IC50 in assay [2] (setting [4]) is 1000 to 5000 nM.
In the case of `COCCNc1ncnc2ccc(-c3ccc(CNc4ncccc4C(=O)N[C@@H](C)c4ccc(F)c(F)c4)s3)cc12` [Example 4.33], the EC50 in assay [1] (setting [3]) fell in the range of 1000 to 10000 nM. This molecule also displayed an IC50 in assay [2] (setting [4]) of less than 100 nM.
In the case of `C[C@H](NC(=O)c1cc(C#N)cnc1NCc1ccc(-c2ncnc(N)c2F)cc1)c1ccc(F)cc1` [Example 101, (S)-2-(4-(6-amino-5-fluoropyrimidin-4-yl)-benzylamino)-5-cyano-N-(1-(4-fluorophenyl)ethyl)nicotinamide], in assay [1] (setting [5]), the EC50 was greater than 10000 nM. This molecule also yielded an IC50 in assay [2] (inhibition of PDK1 in vitro) greater than 5000 nM.
Consider `Nc1n[nH]c2ncc(-c3ccc(CNc4ncc(C(F)(F)F)cc4C(=O)N4CC(F)(F)C4)cc3)cc12` [Example 293], for which the EC50 in assay [1] (Homo sapiens, PC-3, 2 h, inhibition of P308 Akt in PC-3 cells using MSD) is greater than 10000 nM. For the same molecule, the IC50 in assay [2] (inhibition of PDK1 in vitro) lay within 1000 to 5000 nM.
Regarding `CCOc1ccnc(NCc2ccc(-c3ccc4ncnc(N)c4c3)s2)c1C(=O)NCc1ccc(F)c(F)c1` [Ex. 7.5, 2-({[5-(4-aminoquinazolin-6-yl)thiophen-2-yl]methyl}amino)-N-(3,4-difluorobenzyl)-4-ethoxypyridine-3-carboxamide], in assay [1] (setting [3]), the EC50 was greater than 10000 nM. The same molecule gave an IC50 in assay [2] (setting [4]) of 100 to 1000 nM.
Consider `C[C@H](NC(=O)c1nc(C#N)cnc1NCc1ccc(-c2cnc3[nH]nc(N)c3c2)cc1)c1ccc(F)c(F)c1` [Example 25, (S)-3-(4-(3-amino-1H-pyrazolo[3,4-b]pyridin-5-yl)benzylamino)-6-cyano-N-(1-(3,4-difluorophenyl)ethyl)pyrazine-2-carboxamide], for which the EC50 in assay [1] (setting [3]) was less than 1000 nM. The IC50 in assay [2] (setting [4]) is less than 100 nM.
Regarding `N#Cc1cnc(NCc2ccc(-c3cnc(N)cn3)cc2)c(C(=O)NCc2cncc(F)c2)c1` [Example 312, 2-(4-(5-aminopyrazin-2-yl)benzylamino)-5-cyano-N-((5-fluoropyridin-3-yl)-methyl)nicotinamide], the EC50 in assay [1] (setting [5]) was less than 1000 nM. This molecule came in with an IC50 in assay [2] (inhibition of PDK1 in vitro) of less than 100 nM.
Turning to `C[C@H](NC(=O)c1cccnc1NCc1cccc(-c2c[nH]c3ncnc(N)c23)c1)c1ccc(F)cc1` [Example 2.29, (S)-2-(3-(4-amino-7H-pyrrolo[2,3-d]pyrimidin-5-yl)benzylamino)-N-(1-(4-fluorophenyl)ethyl) nicotinamide], the EC50 in assay [1] (inhibition of P308 Akt in PC-3 cells, MSD) lay within 1000 to 10000 nM. For the same molecule, the IC50 in assay [2] (setting [4]) was less than 100 nM.
Take `C[C@@H](NC(=O)c1cccnc1NCc1ccc(-c2ccc3ncnc(N)c3c2)s1)c1ccc(F)cc1` [Example 3.14, 2-({[5-(4-aminoquinazolin-6-yl)thiophen-2-yl]methyl}amino)-N-[(1R)-1-{4-fluorophenyl)ethyl]pyridine-3-carboxamide (TFA salt)]: the EC50 in assay [1] (setting [3]) is greater than 10000 nM. The IC50 in assay [2] (setting [4]) is greater than 5000 nM.
`Nc1n[nH]c2ncc(-c3ccc(CNc4ncc(C(F)(F)F)cc4C(=O)Nc4ccc(Cl)cc4)cc3)cc12` [Example 304, 2-(4-(3-amino-1H-pyrazolo [3,4-b]pyridin-5-yl)benzylamino)-N-(4-chlorophenyl)-5-(trifluoromethyl)nicotinamide]: the EC50 in assay [1] (setting [5]) is less than 1000 nM. Moreover, the IC50 in assay [2] (inhibition of PDK1 in vitro) is less than 100 nM.
As to `CNC(=O)c1cccnc1NCc1cccc(-c2c[nH]c3ncccc23)c1` [Example 1.15, N-methyl-2-{[3-(1H-pyrrolo [2,3-b]pyridin-3-yl)benzyl]amino}pyridine-3-carboxamide], the EC50 in assay [1] (setting [3]) was greater than 10000 nM. The molecule also came in with an IC50 in assay [2] (setting [4]) greater than 5000 nM.
Consider `Nc1ncnc2ccc(-c3cnc(CNc4ncccc4C(=O)NCc4ccc(F)c(F)c4)s3)cc12` [Ex. 7.1], for which the EC50 in assay [1] (setting [3]) lay within 1000 to 10000 nM. This molecule registered an IC50 in assay [2] (setting [4]) of 100 to 1000 nM.
As for `C[C@H](NC(=O)c1cc(C#N)cnc1Nc1ccc(-c2c[nH]c3ncnc(N)c23)cc1)c1ccc(F)cc1` [Example 436, (S)-2-(4-(4-amino-7H-pyrrolo[2,3-d]pyrimidin-5-yl)phenylamino)-5-cyano-N-(1-(4-fluorophenyl)ethyl)nicotinamide], the EC50 in assay [1] (setting [5]) was 1000 to 10000 nM. The molecule further returned an IC50 in assay [2] (inhibition of PDK1 in vitro) of 100 to 1000 nM.
Take `CC(Nc1ncccc1C(=O)NCc1ccc(F)c(F)c1)c1ccc(-c2ccc3ncnc(N)c3c2)s1` (stereo not drawn) [Ex. 7.2]: the EC50 in assay [1] (Homo sapiens, PC-3, 2 h, inhibition of P308 Akt in PC-3 cells, MSD) was 1000 to 10000 nM. In addition, the IC50 in assay [2] (setting [4]) is 100 to 1000 nM.
For `C[C@H](NC(=O)c1nc(C#N)cnc1NCc1ccc(-c2cnc3[nH]nc(NC(=O)c4ccccc4)c3c2)cc1)c1ccc(F)c(F)c1` [Example 37, (S)-3-(4-(3-benzamido-1H-pyrazolo[3,4-b]pyridin-5-yl)benzylamino)-6-cyano-N-(1-(3,4-difluorophenyl)ethyl)pyrazine-2-carboxamide], in assay [1] (setting [3]), the EC50 was less than 1000 nM. In addition, the IC50 in assay [2] (setting [4]) was less than 100 nM.
Molecule `C[C@H](NC(=O)c1cccnc1NCc1ccc(-c2ccc3ncncc3c2)s1)c1ccc(F)cc1` [Example 2.11, (S)-N-(1-(4-fluorophenyl)ethyl)-2-(((5-(quinazolin-6-yl)thiophen-2-yl)methyl)amino)nicotinamide] showed an IC50 in assay [2] (setting [4]) of 100 to 1000 nM.
`O=C(NC1CC1)c1cccnc1NCc1cccc(-c2c[nH]c3ncccc23)c1` [Example 1.12, N-cyclopropyl-2-{[3-(1H-pyrrolo [2,3-b]pyridin-3-yl)benzyl]amino} pyridine-3-carboxamide] registered an IC50 in assay [2] (setting [4]) greater than 5000 nM.
On the same count and under the same terms, the result for `Nc1ncnc2ccc(-c3ccc(CNc4ncccc4S(=O)(=O)NCc4ccc(F)c(F)c4)s3)cc12` [Example 20.2, 2-(((5-(4-aminoquinazolin-6-yl)thiophen-2-yl)methyl)amino)-N-(3,4-difluorobenzyl)pyridine-3-sulfonamide] reads greater than 5000 nM.
